From patent publication EP1734039A1, “Aryl urea compounds as BETA-secretase inhibitors” (Esbatech AG, priority 2005, dated 2006) come the findings set out here.

Molecules are shown by their SMILES.

One test relates to Aβ1-40 secretion. The test can be described thus: Aβ1-40 (Sw) bioassay (cell-based, ELISA). As to conditions: for IC50: Homo sapiens, concentration that reduces Aβ1-40 secretion to 50 %, supernatant of Swedish APP695 transgenic HEK293 cells. An excerpt:
(§1) The tests performed were a) Aβ1-40 (Sw) bioassay, which measures the amount of the amyoid peptide Aβ1-40 in the supernatant of Swedish APP695 transgenic HEK293 cells in the presence of the various BACE inhibitors via ELISA (enzyme-linked immunosorbent assay). […] A SEAP-APP(Sw)695 fusion protein is transiently expressed in HEK293 cells in the presence of the various BACE inhibitors. Secretion of the SEAP moiety upon cleavage at the APP β-site is quantitated via a luminescence readout. […] The compounds were docked with the FFLD approach (Budin et al., Biol. Chem. 382, 1365-1372, 2001) and their binding energy was evaluated with the LIECE method (Huang and Caflisch, J. Med. Chem. 47, 5791-5797, 2004). The affinity evaluated with LIECE is in the low micromolar range for most of these compounds.
(ELISA stands for enzyme-linked immunosorbent assay.)

Test [1] concerns SEAP-APP(Sw)695 fusion protein. The test is described as follows: SEAP bioassay (cell-based, luminescence readout). The note with it: transiently transfected HEK293 cells; for IC50: Homo sapiens, concentration that reduces secreted SEAP activity to 50 %.
Source text: as §1

For a further test, the target named is recombinant BACE enzyme (Homo sapiens, UniProt P56817). The test can be described thus: FRET assay (in vitro). It counts as biochemical. The note with it: for IC50: concentration that reduces the activity of BACE to 50 %.
Chain of recombinant BACE enzyme (P56817 46-501): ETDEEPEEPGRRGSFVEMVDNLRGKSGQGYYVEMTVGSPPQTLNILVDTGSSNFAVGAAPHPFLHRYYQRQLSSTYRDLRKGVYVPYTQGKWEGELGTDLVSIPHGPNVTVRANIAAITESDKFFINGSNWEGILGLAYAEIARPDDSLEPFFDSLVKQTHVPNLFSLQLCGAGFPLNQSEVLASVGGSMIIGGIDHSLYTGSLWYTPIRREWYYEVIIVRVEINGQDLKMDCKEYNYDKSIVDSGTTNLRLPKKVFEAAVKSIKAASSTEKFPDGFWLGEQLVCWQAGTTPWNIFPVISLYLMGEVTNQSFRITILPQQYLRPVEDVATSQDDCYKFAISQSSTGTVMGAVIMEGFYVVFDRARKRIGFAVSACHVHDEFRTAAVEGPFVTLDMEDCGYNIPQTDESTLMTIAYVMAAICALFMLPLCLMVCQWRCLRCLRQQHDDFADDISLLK

Take `CN(C)c1ccc(NC(=O)Nc2cc(C(F)(F)F)cc(C(F)(F)F)c2)cc1C(=O)NCCCN1CCOCC1` [Compound A1]: the IC50 (usually the concentration that inhibits the measured activity by half) turned out to be 3 µM in the test on Aβ1-40 secretion and 3.5 µM in test [1].

For the compound `COCCCNC(=O)c1cc(NC(=O)Nc2cc(C(F)(F)F)cc(C(F)(F)F)c2)ccc1N(C)C` [Compound A2], the values for the IC50 in the test on Aβ1-40 secretion and on recombinant BACE enzyme were 3.2 µM and 284 µM, respectively. Further, the “% reduction of secreted SEAP activity” value in test [1] (at 3 µM) was 27 (3 µM) %.

Compound `CCOCCCNC(=O)c1cc(NC(=O)Nc2cccc(Cl)c2)ccc1N(C)C` [Compound A3] yielded an IC50 in the test with Aβ1-40 secretion of 2.6 µM. Moreover, in test [1] (at 3 µM), the “% reduction of secreted SEAP activity” value is reported as 23 (3 µM) %.

On to `COCCCNC(=O)c1cc(NC(=O)Nc2cccc(OC)c2)ccc1N(C)C` [Compound A4], for which 7.5 µM corresponded to half-maximal inhibition in the test with Aβ1-40 secretion (IC50). In test [1] (at 6 µM), the “% reduction of secreted SEAP activity” value was 21 (6 µM) %. Also, the “% reduction of the activity of BACE” value on recombinant BACE enzyme (at 100 µM) is recorded as 33 (100 µM) %.

Compound `CCCNC(=O)c1cc(NC(=O)Nc2cccc(OC)c2)ccc1N(C)C` [Compound A5] had an IC50 in the test with Aβ1-40 secretion of 14.3 µM. Further, the “% reduction of secreted SEAP activity” value in test [1] (at 6 µM) is on record as 0 (6 µM) %. Further, on recombinant BACE enzyme (at 100 µM), the “% reduction of the activity of BACE” value is 16 (100 µM) %.

For `Cc1ccc(NC(=O)Nc2ccc(N(C)C)c(C(=O)NCCCN3CCOCC3)c2)cc1C` [Compound A6], the IC50 in the test with Aβ1-40 secretion came to 23 µM. In addition, in test [1] (at 12.5 µM), the “% reduction of secreted SEAP activity” value is reported as 19 (12.5 µM) %. For the same compound, the “% reduction of the activity of BACE” value on recombinant BACE enzyme (at 100 µM) was 21 (100 µM) %.

On to `COCCNC(=O)c1cc(NC(=O)Nc2cccc(C)c2)ccc1N(C)C` [Compound A7], for which, in the test on Aβ1-40 secretion, the IC50 came out at 12.9 µM. Also, the “% reduction of secreted SEAP activity” value in test [1] (at 12.5 µM) is reported as 0 (12.5 µM) %. The “% reduction of the activity of BACE” value on recombinant BACE enzyme (at 100 µM) was 0 (100 µM) %.

Take `Cc1cccc(NC(=O)Nc2ccc(N(C)C)c(C(=O)NCCc3ccccc3)c2)c1` [Compound A8]: 5.6 µM corresponded to half-maximal inhibition in the test with Aβ1-40 secretion (IC50). In addition, in test [1] (at 3 µM), the “% reduction of secreted SEAP activity” value is 14 (3 µM) %. Besides, the “% reduction of the activity of BACE” value at recombinant BACE enzyme (at 100 µM) is 35 (100 µM) %.

With `COCCCNC(=O)c1cc(NC(=O)Nc2ccc(Cl)c(Cl)c2)ccc1N(C)C` [Compound A9], the concentration for half-maximal inhibition (IC50) in the test with Aβ1-40 secretion came out at 5.9 µM; at recombinant BACE enzyme it was 46 µM. Moreover, the “% reduction of secreted SEAP activity” value in test [1] (at 3 µM) is recorded as 17 (3 µM) %.

With `COc1cc(NC(=O)Nc2ccc(N(C)C)c(C(=O)NCc3ccc(F)cc3)c2)cc(OC)c1` [Compound A10], the IC50 in the test with Aβ1-40 secretion amounted to 3.1 µM; on recombinant BACE enzyme it was 64 µM. In test [1] (at 1.6 µM), the “% reduction of secreted SEAP activity” value was 10 (1.6 µM) %.

With `CCCNC(=O)c1cc(NC(=O)Nc2ccc(CC)cc2)ccc1N(C)C` [Compound A11], in the test on Aβ1-40 secretion, the IC50 stood at 5.2 µM. In addition, the “% reduction of secreted SEAP activity” value in test [1] (at 6 µM) is given as 0 (6 µM) %. The “% reduction of the activity of BACE” value at recombinant BACE enzyme (at 200 µM) was 20 (200 µM) %.

For `CN(C)c1ccc(NC(=O)Nc2cc(C(F)(F)F)cc(C(F)(F)F)c2)cc1C(=O)NCc1ccc(F)cc1` [Compound A12], the IC50 in the test on Aβ1-40 secretion was found to be 4.2 µM; on recombinant BACE enzyme it was 131 µM. In addition, the “% reduction of secreted SEAP activity” value in test [1] (at 1.6 µM) is given as 14 (1.6 µM) %.

As for `COCCCNC(=O)c1cc(NC(=O)Nc2cccc(Br)c2)ccc1N(C)C` [Compound A13], the IC50 with Aβ1-40 secretion came out at 3.8 µM. The “% reduction of secreted SEAP activity” value in test [1] (at 3 µM) is recorded as 25 (3 µM) %. The “% reduction of the activity of BACE” value at recombinant BACE enzyme (at 100 µM) is on record as 37 (100 µM) %.

The compound `CCOCCCNC(=O)c1cc(NC(=O)Nc2ccccc2Br)ccc1N(C)C` [Compound A14] had an IC50 in the test on Aβ1-40 secretion of 7.8 µM. The “% reduction of secreted SEAP activity” value in test [1] (at 6 µM) is reported as 0 (6 µM) %. Moreover, the “% reduction of the activity of BACE” value at recombinant BACE enzyme (at 100 µM) is 0 (100 µM) %.

In the test on Aβ1-40 secretion, `Cc1cc(C)cc(NC(=O)NCc2nnc(SCc3ccccc3)n2C)c1` [Compound B1] returned an IC50 of 18 µM. Besides, the “% reduction of secreted SEAP activity” value in test [1] (at 50 µM) is 0 (50 µM) %. The “% reduction of the activity of BACE” value on recombinant BACE enzyme (at 500 µM) was 0 (500 µM) %.

In the test with Aβ1-40 secretion, `CSc1nnc(CCNC(=O)Nc2ccc(Cl)c(C(F)(F)F)c2)n1C(C)C` [Compound B2] showed an IC50 of 40 µM. Moreover, in test [1] (at 12.5 µM), the “% reduction of secreted SEAP activity” value was 0 (12.5 µM) %. For the same compound, the “% reduction of the activity of BACE” value at recombinant BACE enzyme (at 250 µM) is listed as 0 (250 µM) %.

As to `CCSc1nsc(NC(=O)Nc2cccc(C(C)=O)c2)n1` [Compound B3], the IC50 in the test on Aβ1-40 secretion was 1.6 µM; in test [1], 10 µM.

In the test on Aβ1-40 secretion, `COc1cccc(NC(=O)Nc2nnc(C(C)Oc3ccccc3)s2)c1` (stereo not drawn) [Compound B4] yielded an IC50 of 13 µM. In test [1] (at 12.5 µM), the “% reduction of secreted SEAP activity” value was 0 (12.5 µM) %. The “% reduction of the activity of BACE” value on recombinant BACE enzyme (at 500 µM) is reported as 0 (500 µM) %.

Regarding `Cc1cccc(NC(=O)NCC2CCN(c3ccc(S(=O)(=O)N4CCOCC4)cc3)CC2)c1` [Compound C3], in the test on Aβ1-40 secretion, inhibition was half-maximal at 22 µM (IC50). The “% reduction of secreted SEAP activity” value in test [1] (at 12.5 µM) is 0 (12.5 µM) %. Further, the “% reduction of the activity of BACE” value at recombinant BACE enzyme (at 50 µM) is given as 0 (50 µM) %.

Consider `CN(C)c1nc(OCCNC(=O)Nc2ccccc2)nc(N2CCCCC2)n1` [Compound C4], for which the “% reduction of Aβ1-40 secretion” value with Aβ1-40 secretion (at 12.5 µM, Swedish APP695 transgenic HEK293 cells) is 31 (12.5 µM) %. The “% reduction of secreted SEAP activity” value in test [1] (at 12.5 µM) is reported as 0 (12.5 µM) %. Moreover, the “% reduction of the activity of BACE” value on recombinant BACE enzyme (at 500 µM) is 0 (500 µM) %.

In turn, `CCNc1nc(NC(C)(C)C)nc(OCCNC(=O)Nc2ccccc2)n1` [Compound C5] returned an IC50 in the test with Aβ1-40 secretion of 10 to 20 µM. Further, in test [1] (at 25 µM), the “% reduction of secreted SEAP activity” value is 0 (25 µM) %. Further, the “% reduction of the activity of BACE” value on recombinant BACE enzyme (at 500 µM) is given as 0 (500 µM) %.
